EC50 data for 34 compounds are collected here from patent publication US20240368096A1 (Enanta Pharmaceuticals, Inc., priority 2022, published 2024).

Structures are written as SMILES. Where two headings read alike, the source gives them in different places. Where only a bound is given, the exact number is not on record here.

The target in one experiment is T1, NTCP (Homo sapiens, UniProt Q14973).
T1 construct: expressed in transfected cells; host or cells: HepG2-NTCP (clone A3, kept under puromycin)
T1 sequence (Q14973 1-349): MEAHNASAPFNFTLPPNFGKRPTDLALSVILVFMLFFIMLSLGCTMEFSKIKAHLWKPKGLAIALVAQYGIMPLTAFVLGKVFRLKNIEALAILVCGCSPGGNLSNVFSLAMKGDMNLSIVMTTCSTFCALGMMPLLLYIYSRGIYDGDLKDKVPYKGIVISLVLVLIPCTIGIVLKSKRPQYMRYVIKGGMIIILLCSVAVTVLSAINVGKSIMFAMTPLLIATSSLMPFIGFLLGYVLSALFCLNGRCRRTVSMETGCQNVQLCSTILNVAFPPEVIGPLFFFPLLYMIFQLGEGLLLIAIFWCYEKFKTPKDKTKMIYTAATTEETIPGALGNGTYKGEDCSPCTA
The experiment can be described thus: HepG2-NTCP preS1 binding competition assay (FITC-labeled myristoylated preS1 peptide). The following applies: HepG2-NTCP cells; competition with FITC-labeled preS1 peptide. Here is the method: HepG2-NTCP preS1 Binding Competition Assay
Myristoylated preS1 peptide (2-48 aa) conjugated to a C-terminal FITC tag was synthesized to evaluate preS1 binding to NTCP-expressing cells. HepG2-NTCP cells seeded in 384-wells were pre-treated with compounds for 2 hours prior to the addition of FITC-labeled preS1 peptide. After co-incubation for 30 minutes, unbound FITC-preS1 peptide was washed twice with PBS, and the fluorescence of preS1-FITC bound to cell surface was detected by Envision plate reader. EC50 ranges are as follows: A<0.1 μM; B 0.1-1 μM; C>1 μM.

Another experiment deals with HBV. The experiment can be described thus: HBV infection in HepG2-NTCP cells (HBeAg AlphaLISA in supernatants). The format is cell-based. The following applies: Hepatitis B virus, 192 h. In outline:
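HepG2-NTCP A3 cells were pre-incubated 2 h with 3-fold serially diluted compounds, then infected with HBV at 2000 GE/cell with 4% PEG (0.5% DMSO final). After washing on day 1, cells stayed in 2.5% DMSO medium; supernatant HBeAg measured by AlphaLISA on day 8, EC50 versus DMSO controls.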
On the technique in general: Bead proximity is the source of the signal in Alpha formats.

The mark [1] stands for this setting: HBV infection of HepG2-NTCP cells, HBeAg in supernatants at day 8 post infection, read-out: Cellular EC50.

Take `CC(=O)NS(=O)(=O)c1ccc(-c2cc3c(cc2Cl)N(c2ccccc2)C[C@@H](C2CCCCC2)N(C)S3(=O)=O)s1` [Example 225]: the EC50 at NTCP lay within 100 to 1000 nM; with HBV (setting [1]) it was 0.1 to 1 µM. With `CN1[C@H](C2CCCCC2)CN(c2ccccc2)c2cc(Cl)c(N3CCC(F)(C(=O)O)C3)cc2S1(=O)=O` (mixture of isomers) [Example 609, 1-((R)-7-chloro-3-cyclohexyl-2-methyl-1,1-dioxido-5-phenyl-2,3,4,5-tetrahydrobenzo[f][1,2,5]thiadiazepin-8-yl)-3-fluoropyrrolidine-3-carboxylic acid], the concentration for a half-maximal effect (EC50) on NTCP was less than 100 nM; in the experiment on HBV (setting [1]), less than 0.1 µM. Consider `CN1[C@H](C2CCCCC2)CN(c2ccccc2)c2cc(Cl)c(-c3ccc(N)c(C(=O)O)c3)cc2S1(=O)=O` [Example 157, (R)-2-amino-5-(7-chloro-3-cyclohexyl-2-methyl-1,1-dioxido-5-phenyl-2,3,4,5-tetrahydrobenzo[f][1,2,5]thiadiazepin-8-yl)benzoic acid], for which the EC50 on NTCP was 100 to 1000 nM; with HBV (setting [1]) it was 0.1 to 1 µM. Take `CN1[C@H](C2CCCCC2)CN(c2ccccc2)c2cc(Cl)c(N3C[C@@H](C(=O)O)[C@H](c4ccccc4)C3)cc2S1(=O)=O` [Example 613]: the figures for the EC50 at NTCP and in the experiment on HBV (setting [1]) were 100 to 1000 nM and less than 0.1 µM, respectively. As to `CN1[C@H](C2CCCCC2)CN(c2ccccc2)c2cc(Cl)c(-c3cc(NC(=O)OCCOC(C)(C)C)c(C(=O)O)s3)cc2S1(=O)=O` [Example 262], on NTCP, the EC50 is less than 100 nM.

With `CN1[C@H](C2CCCCC2)CN(c2ccccc2)c2cc(Cl)c([C@H]3C[C@H](C(=O)O)C3)cc2S1(=O)=O` [Example 608, (1R,3r)-3-((R)-7-chloro-3-cyclohexyl-2-methyl-1,1-dioxido-5-phenyl-2,3,4,5-tetrahydrobenzo[f][1,2,5]thiadiazepin-8-yl)cyclobutane-1-carboxylic acid], the EC50 was 100 to 1000 nM at NTCP and 0.1 to 1 µM in the experiment on HBV (setting [1]). As to `CN1[C@H](C2CCCCC2)CN(c2ccccc2)c2cc(Cl)c(N3CC[C@@H](C(=O)O)C3)cc2S1(=O)=O` [Example 610], the EC50 on NTCP lay in the range of 100 to 1000 nM. As to `CN1[C@H](C2CCCCC2)CN(c2ccccc2)c2cc(Cl)c(N3C[C@H]4C[C@@]4(C(=O)O)C3)cc2S1(=O)=O` [Example 615], the figures for the EC50 on NTCP and with HBV (setting [1]) were less than 100 nM and 0.1 to 1 µM, respectively. `CC(C)CN1C[C@@H](C2CCCCC2)N(C)S(=O)(=O)c2cc(-c3ccc(F)c(C(=O)O)c3)c(Cl)cc21` [Example 325]: the EC50 on NTCP was less than 100 nM; with HBV (setting [1]), less than 0.1 µM. Take `COc1cc2c(cc1-c1ccc(F)c(C(=O)O)c1)S(=O)(=O)N(C)[C@H](C1CCCCC1)CN2c1ccccc1` [Example 348]: the EC50 was less than 100 nM at NTCP and less than 0.1 µM in the experiment on HBV (setting [1]). `COCCOc1cc2c(cc1-c1ccc(F)c(C(=O)O)c1)S(=O)(=O)N(C)[C@H](C1CCCCC1)CN2c1ccccc1` [Example 388]: the values for the EC50 on NTCP and in the experiment with HBV (setting [1]) were less than 100 nM and less than 0.1 µM, respectively. As to `COC1CC(OC(=O)Nc2cc(-c3cc4c(cc3Cl)N(c3ccccc3)C[C@@H](C3CCCCC3)N(C)S4(=O)=O)sc2C(=O)O)C1` (some centres unmarked) [Example 264], the EC50 at NTCP is less than 100 nM. Regarding `CN1[C@H](C2CCCCC2)CN(c2ccccc2)c2cc(OCc3c[nH]cn3)c(-c3ccc(F)c(C(=O)O)c3)cc2S1(=O)=O` [Example 391], the EC50 at NTCP is greater than 1000 nM; in the experiment with HBV (read-out: Cellular EC50 (μM)) it was greater than 1 µM. For `CN1[C@H](C2CCCCC2)CN(c2csc(Cl)c2)c2cc(Cl)c(-c3ccc(F)c(C(=O)O)c3)cc2S1(=O)=O` [Example 316, (R)-5-(7-chloro-5-(5-chlorothiophen-3-yl)-3-cyclohexyl-2-methyl-1,1-dioxido-2,3,4,5-tetrahydrobenzo[f][1,2,5]thiadiazepin-8-yl)-2-fluorobenzoic acid], the values for the EC50 at NTCP and in the experiment on HBV (setting [1]) were less than 100 nM and less than 0.1 µM, respectively.

Turning to `CC(C)COC(=O)Nc1cc(-c2cc3c(cc2Cl)N(c2ccccc2)C[C@@H](C2CCCCC2)N(C)S3(=O)=O)sc1C(=O)O` [Example 241], the figures for the EC50 at NTCP and with HBV (setting [1]) were less than 100 nM and less than 0.1 µM, respectively. Regarding `COc1ccccc1N1C[C@@H](C2CCCCC2)N(C)S(=O)(=O)c2cc(-c3ccc(F)c(C(=O)O)c3)c(Cl)cc21` [Example 304, (R)-5-(7-chloro-3-cyclohexyl-5-(2-methoxyphenyl)-2-methyl-1,1-dioxido-2,3,4,5-tetrahydrobenzo[f][1,2,5]thiadiazepin-8-yl)-2-fluorobenzoic acid], the values for the EC50 at NTCP and with HBV (read-out: Cellular EC50 (μM)) were greater than 1000 nM and greater than 1 µM, respectively. `CN1[C@H](C2CCCCC2)CN(c2ccccc2)c2cc(OC3COC3)c(-c3ccc(F)c(C(=O)O)c3)cc2S1(=O)=O` [Example 370] gave an EC50 at NTCP of 100 to 1000 nM.

With `COCCCOC(=O)Nc1cc(-c2cc3c(cc2Cl)N(c2ccccc2)C[C@@H](C2CCCCC2)N(C)S3(=O)=O)sc1C(=O)O` [Example 263], at NTCP, the EC50 was less than 100 nM. Regarding `CCCCCN1C[C@@H](C2CCCCC2)N(C)S(=O)(=O)c2cc(-c3ccc(F)c(C(=O)O)c3)c(Cl)cc21` [Example 323], the results for the EC50 at NTCP and with HBV (setting [1]) were less than 100 nM and less than 0.1 µM, respectively. With `CN1[C@H](C2CCCCC2)CN(c2ccccc2)c2cc(Cl)c(-c3cc(NC(=O)OCC(F)F)c(C(=O)O)s3)cc2S1(=O)=O` [Example 242], the results for the EC50 at NTCP and in the experiment with HBV (setting [1]) were less than 100 nM and less than 0.1 µM, respectively. For `Cc1cc(-c2cc3c(cc2OCC(F)(F)F)N(c2ccccc2)C[C@@H](C2CCCCC2)N(C)S3(=O)=O)sc1C(=O)O` [Example 512, (R)-5-(3-cyclohexyl-2-methyl-1,1-dioxido-5-phenyl-7-(2,2,2-trifluoroethoxy)-2,3,4,5-tetrahydrobenzo[f][1,2,5]thiadiazepin-8-yl)-3-methylthiophene-2-carboxylic acid] the same measures were less than 100 nM and less than 0.1 µM. In the case of `CN(C)C(=O)c1ccc(N2C[C@@H](C3CCCCC3)N(C)S(=O)(=O)c3cc(-c4ccc(F)c(C(=O)O)c4)c(Cl)cc32)cc1` [Example 315], on NTCP, the EC50 was greater than 1000 nM. In turn, `CN1[C@H](C2CCCCC2)CN(c2ccccc2)c2cc(Cl)c(-c3ccc(S(=O)(=O)NC(=O)c4ccccc4)s3)cc2S1(=O)=O` [Example 226] yielded an EC50 on NTCP of 100 to 1000 nM. In the case of `CCCS(=O)(=O)Nc1ccc(-c2cc3c(cc2Cl)N(c2ccccc2)C[C@@H](C2CCCCC2)N(C)S3(=O)=O)cc1C(=O)O` [Example 274], the results for the EC50 at NTCP and in the experiment on HBV (setting [1]) were less than 100 nM and less than 0.1 µM, respectively.

With `CN1[C@H](C2CCCCC2)CN(c2ccccc2)c2cc(Cl)c(N3CC[C@H](C(=O)O)C3)cc2S1(=O)=O` [Example 611], at NTCP, the EC50 was in the range of 100 to 1000 nM. Consider `CCCCC1CN(c2ccccc2)c2cc(CN3CCCC3)c(-c3ccc(F)c(C(=O)O)c3)cc2S(=O)(=O)N1C` (centres unmarked) [Example 563, 5-(3-butyl-2-methyl-1,1-dioxido-5-phenyl-7-(pyrrolidin-1-ylmethyl)-2,3,4,5-tetrahydrobenzo[f][1,2,5]thiadiazepin-8-yl)-2-fluorobenzoic acid], for which the EC50 on NTCP was less than 100 nM; in the experiment on HBV (setting [1]) it was 0.1 to 1 µM.

In the case of `CN1[C@H](C2CCCCC2)CN(c2nccs2)c2cc(Cl)c(-c3ccc(F)c(C(=O)O)c3)cc2S1(=O)=O` [Example 317], the results for the EC50 on NTCP and with HBV (setting [1]) were 100 to 1000 nM and 0.1 to 1 µM, respectively. As for `CN1[C@H](C2CCCCC2)CN(c2ccccc2)c2cc(F)c(-c3ccc(NC(=O)OCc4ccccc4)c(C(=O)O)c3)cc2S1(=O)=O` [Example 235, (R)-2-(((benzyloxy)carbonyl)amino)-5-(3-cyclohexyl-7-fluoro-2-methyl-1,1-dioxido-5-phenyl-2,3,4,5-tetrahydrobenzo[f][1,2,5]thiadiazepin-8-yl)benzoic acid], the EC50 on NTCP was less than 100 nM; in the experiment with HBV (setting [1]), less than 0.1 µM. As for `CCOC(=O)Nc1cc(-c2cc3c(cc2Cl)N(c2ccccc2)C[C@@H](C2CCCCC2)N(C)S3(=O)=O)sc1C(=O)O` [Example 240], the EC50 on NTCP was less than 100 nM; in the experiment with HBV (setting [1]), less than 0.1 µM. For `CN1[C@H](C2CCCCC2)CN(c2ncco2)c2cc(Cl)c(-c3ccc(F)c(C(=O)O)c3)cc2S1(=O)=O` [Example 318], the figures for the EC50 at NTCP and in the experiment with HBV (read-out: Cellular EC50 (μM)) were greater than 1000 nM and greater than 1 µM, respectively. Take `CN1[C@H](C2CCCCC2)CN(c2ccccc2)c2cc(O[C@H]3C[C@H](O)C3)c(-c3cc(F)c(C(=O)O)s3)cc2S1(=O)=O` [Example 503]: the EC50 on NTCP lay within 100 to 1000 nM. Same read-out and setting: to `CC(C)C(=O)NS(=O)(=O)c1ccc(-c2cc3c(cc2Cl)N(c2ccccc2)C[C@@H](C2CCCCC2)N(C)S3(=O)=O)s1` [Example 227] belongs 100 to 1000 nM. In turn, `CN1[C@H](C2CCCCC2)CN(c2ccccc2)c2cc(Cl)c(-c3ccc(S(N)(=O)=O)s3)cc2S1(=O)=O` [Example 201] yielded an EC50 at NTCP greater than 1000 nM. In turn, `CN1[C@H](C2CCCCC2)CN(c2ccccc2)c2cc(Cl)c(-c3cc(Cl)c(N)c(C(=O)O)c3)cc2S1(=O)=O` [Example 192] returned an EC50 at NTCP of 100 to 1000 nM.

As a reminder, the EC50 is the concentration needed to bring the measured effect to its halfway point.
